We go through four compounds from patent publication US10251865B2, “Method of activating regulatory T cells with alpha-2B adrenergic receptor agonists” (Allergan, Inc., priority 2010, dated 2019).

One test deals with IL-2. Briefly: IL-2 levels in tissues from SNL rats (Luminex cytokine analysis). Type of test: in vivo, rat. The conditions noted are these: for IL-2 level, Ipsilateral DRGL4 / IL-2 level, Ipsilateral DRGL5, L6 / IL-2 level, Ipsilateral spinal cord / IL-2 level, Serum: 2.4 mg/kg/day via osmotic minipump, mean ± SEM. The method, then: (§1) The SNL (or Chung) Model in the rat is an accepted standard animal model of neuropathic pain and is thought to mimic the human causalgia condition with respect to symptoms (guarding behavior, mechanical allodynia) and alleviation by pharmacological agents. […] The SNL Model is performed by tightly ligating the L-5 and L-6 spinal nerves, which produces tactile allodynia or sensitivity to light touch as described (Kim and Chung, 1992). Male sprague-dawley rats (100-120 grams; Charles River, Wilmington, Mass.) were anesthetized through inhalation of an isoflurane/oxygen mix. The surgical site was shaved and prepared with betadine. An incision was made from the thoracic vertebra XIII toward down the sacrum. The muscle was separated from the spinal vertebra (left side) at the L4-S2 levels. The L6 vertebra was located and then the transverse process was carefully removed with a small rongeur to visually identify the L4-L6 spinal nerves. The L5 and L6 spinal nerves was isolated and tightly ligated with 6-0 silk thread. A complete homeostasis was confirmed and then the wound was sutured. The duration of the surgery was approximately 20 minutes. A small amount of antibiotic ointment was applied to the incised area and the animals were transferred to a plastic recovery cage under a regulated heat-temperature lamp. Animals were not given any topical or local anesthetics post-operatively because they will inhibit the development of the pain syndrome, which is the phenomenon to be studied.
Compound A was formulated in 50% DMSO (Sigma, St. Louis, Mo.). This solution was loaded into the osmotic minipumps (Model 1007D, Alzet Corp., Palo Alto, Calif.) set to deliver the drug at a rate of 0.5 ul/hr resulting in a final dose of 2.4 mg/kg/day. The vehicle for these studies is 50% DMSO administered via osmotic minipumps at a rate of 0.5 ul/hr/kg.
The levels of cytokines were measured with a sensitive, fluorescent multiplex immunobead assay (Luminex; Biosource-Invitrogen, Carlsbad, Calif.). 9 plex rat cytokine/chemokine (RCYTO-80K-09) panel from Millipore was used. Cytokine levels in samples were analyzed by using the corresponding Millipore cytokine Beadmate pairs. For the Luminex assay, a 96-well filter plate (Millipore) was pre-wetted with 25 μl of Beadlyte cytokine assay buffer. A vacuum manifold (Millipore, Billerica, Mass.) was used to aspirate the buffer from the wells. 25 μl of sample was placed in each well. The beads (25 μl) were pipetted into the wells. Standard curves for each cytokine were generated in duplicate by placing 25 μl of the appropriate dilution of standards purchased from Millipore. The plate was incubated overnight with gentle shaking in the dark at 4° C. Beads were washed with Beadlyte cytokine assay buffer (Millipore) and wash buffer was eliminated using a vacuum manifold. 25 μl of the appropriate biotin-conjugated secondary antibody (Millipore) was added to each well for 90 minutes at room temperature with gentle shaking. Beads were incubated with Beadlyte streptavidin-phycoerythrin (1:25 dilution in Beadlyte assay buffer) for 30 minutes at room temperature with gentle shaking. Beads were washed, resuspended in 125 μl of Beadlyte buffer, and analyzed by Luminex 100 instrument (Luminex Corporation, Austin, Tex.). The mean fluorescence intensities obtained from 50 beads per cytokine minimum were analyzed using Upstate Beadview software. Standard curves were generated (8 data points including a zero standard run in duplicate) using a four- or five-parametric logistic curve. R-squared values were between 0.99 and 1. Data are expressed in pg/ml or ng/ml values.

Test [1] concerns SNL Rat Model of Allodynic Neuropathic Pain. Description: Allodynia reversal (Von Frey) in the SNL Rat Model of Allodynic Neuropathic Pain. Type of test: in vivo. The conditions noted are these: SNL rats, 3 mg/kg BID SC alone. The method, then: as §1
The allodynia is quantitated in the animals having received the Chung surgery by stimulation with a series of 8 Von Frey hairs on the mid planter area of the surgical hind paw in the up-down manner as described in the literature (Dixon, 1980). Von Frey hairs are applied in an up-down manner depending on the response until the 50% threshold is established. The Von Frey hairs are applied to the plantar surface of the surgical paw with just enough force to bend them. A positive response is recorded if the paw is sharply withdrawn. Eight Von Frey hairs were used 3.61, 3.84, 4.08, 4.31, 4.56, 4.74, 4.93 and 5.18 yielding a gram force of 0.25-15 grams.
[formula] • Mean±SEM: • Mean=average of allodynia reversals • SEM=STDEV/SQ ROOT of n
Testing with compounds is done 2-3 weeks after surgery to establish stable allodynia. In all experimental animals, baseline measurements were taken prior to drug administration and then at 24 hours and 5-23 days post dosing with Alzet osmotic minipump. The investigator was blinded to the identity of the drug groups. The % allodynia reversal is calculated as: [(Postdrug threshold−Predrug threshold)/(15-Predrug threshold)]×100.
Compound B was formulated in 50% DMSO (dimethyl sulfoxide; Sigma, St. Louis, Mo.). This solution was dosed orally TID at a dose of 0.3 or 1 mg/kg. For dosing in the osmotic minipumps (Model 1007D, Alzet Corp., Palo Alto, Calif.) the compound was loaded onto the pumps set to deliver a final dose of either 1 or 3 mg/kg/day. The vehicle for these studies is 50% DMSO.
Compound C was formulated first in 100% DMSO (Sigma, St. Louis, Mo.), then diluted down in 30% DMSO for a 10 mg/ml solution; 15% DMSO for a 3 mg/ml solution and further dilutions were made in water. The compound was dosed orally TID at a dose of either 0.3 or 1 mg/kg for a total daily dose of 1 or 3 mg/kg/day, respectively.

Test [2] has the same test system. The conditions noted are these: background statement on the model, cited from earlier work.
The mark [3] stands for this setting: Table 3 study, mean % MPE ± SEM.

As for `OCCNC(=S)NCc1cccc(Cl)c1F` [Compound A], in the test on IL-2 (24 hours), the “IL-2 level, Ipsilateral DRGL4” value was determined as 101.63 ± 20.55 pg/mL; the “IL-2 level, Ipsilateral DRGL5, L6” value turned out to be 211 ± 33.72 pg/mL; the “IL-2 level, Ipsilateral spinal cord” value was 345 ± 19.34 pg/mL; the “IL-2 level, Serum” value was 978 ± 77.13 pg/mL. In the test on IL-2 (5 days), the “IL-2 level, Ipsilateral DRGL4” value was found to be 69.52 ± 9.42 pg/mL; the “IL-2 level, Ipsilateral DRGL5, L6” value amounted to 138.35 ± 22.59 pg/mL; the “IL-2 level, Ipsilateral spinal cord” value came out at 351.75 ± 17.19 pg/mL; the “IL-2 level, Serum” value amounted to 380.25 ± 61.67 pg/mL. Further, the “spinal nerve ligation surgery-induced increase of IL-2 levels” value in the test on IL-2 (result in words) is “attenuated”.

As to `C=CC[C@@H]1/C=C(\C)C[C@H](C)C[C@H](OC)[C@H]2O[C@@](O)(C(=O)C(=O)N3CCCC[C@H]3C(=O)O[C@H](/C(C)=C/[C@@H]3CC[C@@H](O)[C@H](OC)C3)[C@H](C)[C@@H](O)CC1=O)[C@H](C)C[C@@H]2OC` [FK506, reference compound], in test [1] (Table 2 study), the “% Allodynia Reversal 24 hr post” value was −5.77 ± 3.43% and the “% Allodynia Reversal 7 day post” value was −6.39 ± 4.85%. In addition, in test [1] (setting [3]), the “% Allodynia Reversal 24 hr post” value is listed as −0.53 ± 6.21% and the “% Allodynia Reversal 23 day post” value amounted to 2.01 ± 5.86%.

Take `CN1CC[C@]23c4c5ccc(O)c4O[C@H]2[C@@H](O)C=C[C@H]3[C@H]1C5` [morphine]: the “alleviation of tactile allodynia” value in test [2] is on record as “does not alleviate”.

Consider `NCC1(CC(=O)O)CCCCC1` [Gabapentin], for which, in test [2] (30 mg/kg p.o.), the alleviation of allodynia is 50%.
